Assay results reported in patent publication US9951104B2, “Peptides and methods of using same” (Serpin Pharma, LLC, priority 2012, dated 2018).
“Also recorded” adds a separate entry of the source.

What was measured:
[1] = test system: 111 human receptors; experiment: GenSEP Explorer panel, human receptor panning; details: whole GenSEP Explorer panel
From the text: In addition, we also performed a profile using human receptor panning. The GenSEP Explorer panel contains 111 in vitro assay targets carefully selected to assess drug/chemical biological activities. Assay categories include GPCRs, Voltage-Gated Ion Channels, Ligand-Gated Ion Channels, Neurotransmitter transporters, Nuclear Receptors and Steroids as well as a diverse set of biochemical targets including Phosphodiesterases, Kinases and other relevant enzymes.

[2] = SP16 pharmacokinetic profile, plasma concentration by LC/MS/MS; assay type: in vivo, rat; details: SP16, IV (5 mg/kg), normal rats
Protocol: In performing the assay, three normal rats were injected intravenously with 5 mg/kg SP16 and the plasma concentration of SP16 established at 8 time points following the injection. […] The assay was executed by Apredica, Boston, Mass.

[3] = biological target: T1, hERG (Homo sapiens, UniProt Q12809); experiment: hERG FastPatch assay; assay type: cell-based; details: test conc 0.008-25 μM
T1 construct: Apredica (contract study)
T1 sequence (Q12809 whole entry): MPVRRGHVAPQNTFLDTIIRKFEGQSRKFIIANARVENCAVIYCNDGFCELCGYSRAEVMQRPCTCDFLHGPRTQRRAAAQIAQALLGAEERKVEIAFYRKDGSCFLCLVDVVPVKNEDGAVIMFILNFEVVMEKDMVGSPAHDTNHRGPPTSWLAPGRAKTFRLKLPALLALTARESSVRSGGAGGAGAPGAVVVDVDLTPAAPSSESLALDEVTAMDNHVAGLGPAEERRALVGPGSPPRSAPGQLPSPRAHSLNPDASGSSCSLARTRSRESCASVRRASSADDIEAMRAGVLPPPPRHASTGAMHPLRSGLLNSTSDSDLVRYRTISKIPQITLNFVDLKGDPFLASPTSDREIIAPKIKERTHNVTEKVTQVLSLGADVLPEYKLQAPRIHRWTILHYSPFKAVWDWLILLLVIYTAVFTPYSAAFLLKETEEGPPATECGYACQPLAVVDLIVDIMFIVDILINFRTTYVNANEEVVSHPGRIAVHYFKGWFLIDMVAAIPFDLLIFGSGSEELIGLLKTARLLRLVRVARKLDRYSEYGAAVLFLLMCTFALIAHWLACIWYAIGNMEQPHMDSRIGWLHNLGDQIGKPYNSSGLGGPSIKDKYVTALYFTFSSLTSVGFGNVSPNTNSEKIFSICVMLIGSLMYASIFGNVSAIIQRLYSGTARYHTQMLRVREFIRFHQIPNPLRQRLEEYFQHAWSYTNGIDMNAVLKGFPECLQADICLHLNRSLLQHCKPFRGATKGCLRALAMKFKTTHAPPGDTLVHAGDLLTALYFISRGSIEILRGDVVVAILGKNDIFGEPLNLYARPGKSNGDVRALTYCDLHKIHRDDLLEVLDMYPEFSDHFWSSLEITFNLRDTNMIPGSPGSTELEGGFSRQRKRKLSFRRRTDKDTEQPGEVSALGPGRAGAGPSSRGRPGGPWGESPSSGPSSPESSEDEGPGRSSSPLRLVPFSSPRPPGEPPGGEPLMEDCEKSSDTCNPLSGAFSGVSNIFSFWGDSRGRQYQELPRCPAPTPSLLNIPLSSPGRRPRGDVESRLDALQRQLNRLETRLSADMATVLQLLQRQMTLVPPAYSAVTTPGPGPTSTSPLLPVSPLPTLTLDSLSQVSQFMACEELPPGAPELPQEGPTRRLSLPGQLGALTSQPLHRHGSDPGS

[4] = biological target: T2, TLR-2 (Mus musculus, UniProt Q9QUN7); experiment: TLR-2 indicator cell line assay (HEK-Blue mTLR2, Invivogen), secreted alkaline phosphatase; assay type: cell-based; details: 20 μg/ml peptide for 24 hours (FIGS. 12, 13)
T2 construct: host or cells: HEK-Blue mTLR2 (engineered HEK reporter line secreting alkaline phosphatase)
T2 sequence (Q9QUN7 25-784): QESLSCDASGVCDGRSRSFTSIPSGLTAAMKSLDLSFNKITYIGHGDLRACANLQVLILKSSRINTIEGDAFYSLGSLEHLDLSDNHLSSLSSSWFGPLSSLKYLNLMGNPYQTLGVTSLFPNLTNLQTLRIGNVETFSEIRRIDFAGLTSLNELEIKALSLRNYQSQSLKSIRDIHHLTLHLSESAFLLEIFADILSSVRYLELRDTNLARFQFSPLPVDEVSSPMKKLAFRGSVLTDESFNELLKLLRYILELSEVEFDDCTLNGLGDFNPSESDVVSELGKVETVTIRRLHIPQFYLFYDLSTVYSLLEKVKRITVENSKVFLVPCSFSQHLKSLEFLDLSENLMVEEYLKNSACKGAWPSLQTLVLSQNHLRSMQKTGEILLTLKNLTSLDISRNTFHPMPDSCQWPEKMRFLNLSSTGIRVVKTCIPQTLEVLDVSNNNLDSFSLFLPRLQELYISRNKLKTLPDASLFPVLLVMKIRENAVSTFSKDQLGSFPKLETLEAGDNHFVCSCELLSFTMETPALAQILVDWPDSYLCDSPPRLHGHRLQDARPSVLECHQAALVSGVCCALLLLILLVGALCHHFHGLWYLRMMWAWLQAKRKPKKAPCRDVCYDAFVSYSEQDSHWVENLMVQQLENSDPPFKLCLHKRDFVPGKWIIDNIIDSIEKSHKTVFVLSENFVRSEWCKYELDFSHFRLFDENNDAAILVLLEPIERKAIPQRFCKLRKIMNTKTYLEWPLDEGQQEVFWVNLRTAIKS
Protocol: Graph summarizing representative data from assays with an engineered TLR-2 indicator cell line (HEK-Blue™ mTLR2, Invivogen). Cells were incubated with the indicated concentrations of peptide for 24 hours. Upon TLR2 activation, the cells secrete alkaline phosphatase which can be assayed. The assay was done in triplicate and averages with standard deviations are plotted.
Graph summarizing data from an experiment where an engineered TLR-2 indicator cell line (HEK-Blue™ mTLR2, Invivogen) was used to test the impact of substituting amino acid residues of the SP16 peptide with alanine (“alanine scan”). Cells were incubated with 20 μg/ml of the indicated peptides for 24 hours. Upon TLR2 activation, the cells secrete alkaline phosphatase which can be assayed. The assay was done in triplicate and averages are plotted. Peptide sequences are shown in the following figure. *p<0.05, compared with scrambled control (SP34).
We also performed a peptide optimization assay using an alanine scan with the TLR-2 assay. Data was obtained using an experiment with an engineered TLR-2 indicator cell line (HEK-BLUE™ mTLR2, Invivogen). Cells were incubated with the 20 μg/ml of the indicated peptides for 24 hours. Upon TLR2 activation, the cells secrete alkaline phosphatase which can be assayed. The assay was done in triplicate and averages are plotted. […]

[5] = test system: LPS challenged mice; experiment: Mouse LPS challenge model, serum TNF-alpha readout; assay type: in vivo; details: LPS challenged mice treated with alanine scanned SP16 peptides; compared to Dexamethasone (FIG. 10)
Protocol: In FIG. 10A the mice were treated with alanine scanned SP16 peptide. […] Based on this alanine screen, and without wishing to be bound by a theory, it appears that the C- and N-terminal amino acids contribute to the anti-inflammatory effect of the SP16 peptide. […] Groups of 3 animals were injected with 0.2 mg/kg peptide and subjected to LPS challenge. Serum TNF-alpha levels were determined by ELISA. Several peptides provided the same level of protection as 1 mg/kg Dexamethasone.
The ability of peptide drugs was tested to for their potential for the reduction of inflammatory cytokines following treatment with purified bacterial lipopolysaccharide (LPS)—a major component of bacterial cell wall of Gram negative bacteria. A model of inflammation was used wherein mice were injected with LPS, which induced a transient immune response and a surge of serum inflammatory cytokines. The immune response peaks after 90 minutes and subsides after 24 hours. The levels of key serum inflammatory markers were compared between mice treated and untreated with LPS 90 minutes after injection.
We designed 18 different peptides based on the hAAT sequence (Accession #AAB59371), and had these synthesized using conventional FMOC chemistry. To assess in vivo anti-inflammatory and therapeutic potential, the peptides were tested in a mouse lipopolysaccharide (LPS) challenge model with serum TNFα levels as readout. Using dexamethasone as reference, groups of 3 animals were IP injected with 0.2 mg/kg peptide 2 hours prior to an LPS challenge, and serum TNFα levels determined 30 min after the LPS challenge, by ELISA. The best performing peptide reduced serum TNFα levels equivalent to those achieved with 1 mg/kg dexamethasone. Next, shortened versions of this peptide were synthesized, tested in the mouse LPS challenge model, and a 17 amino acid peptide, SP16, emerged as a lead development candidate for further characterization. Next, SP16 was tested in a lethal endotoxemia model, which models endotoxemia following acute radiation exposure, where Gram negative bacteria leaking from the gastro-intestinal system can cause lethal endotoxemia.
Mice were injected with 0.5, 0.1, 0.02 and 0.004 mg of each peptide. Mice were also treated with dexamethasone as a positive control and vehicle as a negative control. Two hours later each mouse was injected with LPS. Samples were taken 90 minutes after LPS injection.
To evaluate the effect of different amino acids in the SP16 peptide for the immunomodulating effect, we created an alanine screen. […] The peptides wherein the substitution occurred within amino acids 4-14 of SP16, appeared to maintain and rather improve their capacity to reduce TNF-alpha levels compared to the control Dexamethasone. […]

Compound	TNF-alpha levels [5]	other results
CC[C@H](C)[C@H](NC(=O)[C@H](CCSC)NC(=O)[C@H](CC(C)C)NC(=O)[C@H](Cc1ccccc1)NC(=O)[C@@H](NC(=O)[C@H](Cc1ccccc1)NC(=O)[C@@H]1CCCN1C(=O)[C@H](CCCCN)NC(=O)[C@H](CC(N)=O)NC(=O)[C@H](Cc1ccccc1)NC(=O)[C@H](CCCCN)NC(=O)[C@@H](N)C(C)C)C(C)C)C(=O)N[C@@H](CCC(=O)O)C(=O)N[C@@H](CCC(N)=O)C(=O)N[C@@H](CC(N)=O)C(=O)N[C@H](C(=O)N[C@@H](CCCCN)C(=O)O)[C@@H](C)O [SP16]		effect on 111 human receptors [1]: no effect; Last Time point [2]: 8 h; hERG inhibition (comment) [3]: does not inhibit hERG; also recorded: No concentration-dependent inhibition
A A A N K P F V F L M I E Q N T K (AAANKPFVFLMIEQNTK; listed as Homo sapiens) [SP37, SP16 with residues 1-3 substituted with alanines]		impact on TLR-2 signaling (alanine scan) [4]: no impact on TLR2
V K F A A A F V F L M I E Q N T K (VKFAAAFVFLMIEQNTK; listed as Homo sapiens) [SP40]	reduce TNF-alpha levels more than Dexamethasone	
V K F N K P A A A L M I E Q N T K (VKFNKPAAALMIEQNTK; listed as Homo sapiens) [SP43]	reduce TNF-alpha levels more than Dexamethasone	
V K F N K P F V F A A A E Q N T K (VKFNKPFVFAAAEQNTK; listed as Homo sapiens) [SP46]	reduce TNF-alpha levels more than Dexamethasone	
V K F N K P F V F L M I A A A T K (VKFNKPFVFLMIAAATK; listed as Homo sapiens) [SP49]	reduce TNF-alpha levels more than Dexamethasone	
